Source: paper PMC6385020 (Molecules, 2019)
“Also recorded” adds a separate entry of the source.

How the values were obtained:
[1] = tested on: all the tested G4s structures; design: method as in PMID 21528379; conditions: cited from earlier work
[2] = tested on: 21CTA human telomeric sequence variant G4; format: binding; conditions: PhenDV 1.5 eq, K+100 buffer
Experimental: (§1) For the G4-FID assay, the oligonucleotides were dissolved in K^+100 buffer (10 mM lithium cacodylate buffer pH 7.3, 100 mM KCl, 1% DMSO). Oligonucleotide concentrations were determined on the basis of their absorbance at 260 nm. For the fluorimetric titration, the oligonucleotides were dissolved in K^+100 buffer without DMSO. For the FRET-melting assay, the oligonucleotides were dissolved in K^+1 buffer (10 mM lithium cacodylate buffer pH 7.3, 1 mM KCl, 99 mM LiCl) except for F-21-T. F-21-T was dissolved in K^+10 buffer (10 mM lithium cacodylate buffer pH 7.3, 10 mM KCl, 90 mM LiCl).
(§2) Prior to use, all oligonucleotides were pretreated by heating at 95 °C for 5 min, then rapidly cooled to 4 °C to favor the intramolecular folding by kinetic trapping. Duplex-DNA ds26 was prepared by heating the self-complementary strand at 90 °C for 5 min in K^+1 buffer followed by a slow cooling over 6 h.
(§3) Each G4-FID assay was performed in a 96-well Non-Binding Surface black with black bottom polystyrene microplates (Corning). Every ligand was tested on a line of the microplate, in duplicate. The microplate was filled with (a) K^+100 solution (qs for 200 μL), (b) 10 μL of a solution of pre-folded oligonucleotides (5 μM) and fluorescent probe (TO/TO-PRO-3 (10 μM—2 eq) or PhenDV (7,5 µM—1.5 eq)), and (c) an extemporaneously prepared 5 μM ligand solution in K^+100 buffer (0 to 100 μL) along the line of the microplate, i.e., from column A to column H: 0, 0.125, 0.25, 0.375, 0.5, 0.625, 0.75, 1.0, 1.25, 1.5, 2.0, and 2.5 μM. After 5 min of orbital shaking at 500 rpm, fluorescence is measured using the following experimental parameters: positioning delay of 0.5 s, 20 flashes per well, emission/excitation filters for TO at 485/520, TO-PRO-3 at 620/670, and PhenDV at 355/520 gain adjusted at 80% of the fluorescence from the most fluorescent well (i.e., a well from column A for TO and a well from column H).
(§4) In the case of PhenDV, the fluorescence of the unbound probe is not negligible. The percentage of displacement becomes (2) % PhenDV Displacement=F−F0/Fligand+probe−F0
(§5) The PhenDV displacement is calculated from the fluorescence intensity F; F(ligand+probe), which refers to the fluorescence of the probe in presence of the ligand (without G4); and F0, which is the fluorescence without added ligand. The term F(ligand+probe) is necessary as the ligand can quench the fluorescence of the probe. The percentage of displacement is then plotted as a function of the concentration of the added ligand. The DNA affinity was evaluated by the concentration of ligand required to decrease the fluorescence of the probe by 50%, was noted DC50, and was determined after non-linear fitting of the displacement curve.

[3] = tested on: CEB25-WT minisatellite sequence G4; test: PhenDV G4-FID assay; format: binding; conditions: PhenDV 1.5 eq, K+100 buffer
Experimental: as §1, §2, §3, §4, §5

c-myc G4 [4] = test: PhenDV G4-FID assay; format: binding; conditions: PhenDV 1.5 eq, K+100 buffer
Experimental: as §1, §2, §3, §4, §5

[5] = tested on: 22AG human telomeric sequence G4; test: PhenDV G4-FID assay; format: binding; conditions: PhenDV 1.5 eq, K+100 buffer
Experimental: as §1, §2, §3, §4, §5

[6] = tested on: CCD19Lu normal lung cell line; test: Cell growth (proliferation), 96 h treatment; format: cell-based, human
Experimental: (§6) The ovarian carcinoma cell lines and human normal lung cells were purchased from ATCC and were grown in complete RPMI medium (ovarian) and DMEM (human lung cells) supplemented with 10% fetal calf serum, in the presence of penicillin, streptomycin. The resistance of A2780cis cells to cisplatin was maintained by monthly treatment with 1 µM cisplatin for 4 days. Concentrated stock solutions of complexes were conserved at −20 °C (DMSO/Water) and freshly diluted in water just before the experiments. Cells were treated with various concentrations of platinum complexes at 37 °C under humidity and 5% CO2 conditions for 96 h. Cellular growth was quantified using the particle counter MOXI (VWR).

[7] = tested on: A2780cis cisplatin-resistant ovarian cancer cell line; test: Cell growth (proliferation), 96 h treatment; format: cell-based, human
Experimental: as §6

[8] = tested on: A2780 ovarian cancer cell line; test: Cell growth (proliferation), 96 h treatment; format: cell-based, human
Experimental: as §6

[9] = tested on: CEB25-WT minisatellite sequence G4; test: TO G4-FID assay; format: binding; conditions: TO 2 eq, K+100 buffer
Experimental: as §1, §2, §3
(§7) The percentage of TO displacement is calculated from the fluorescence intensity (F), using (1) % TO displacement=1−F/F0 where F0 is the fluorescence from the fluorescent probe bound to DNA without added ligand.
as §5

c-myc G4 [10] = test: TO G4-FID assay; format: binding; conditions: TO 2 eq, K+100 buffer
Experimental: as §1, §2, §3, §7, §5

[11] = tested on: 22AG human telomeric sequence G4; test: TO G4-FID assay; format: binding; conditions: TO 2 eq, K+100 buffer
Experimental: as §1, §2, §3, §7, §5

[12] = tested on: G4-DNA structures (F-21-T, F-myc-T, F-21CTA-T, F-CEB25-WT-T); test: FRET-melting assay (ligand-induced stabilization); format: binding, human
Experimental: as §1, §2
The stabilization of the compounds with a quadruplex-structure was monitored via FRET-melting assay performed in 96-well plates on a real-time PCR apparatus 7900HT Fast Real-Time PCR System as follows: 5 min at 25 °C and then an increase of 0.5 °C every minute until 95 °C. Each experimental condition was tested and replicated in a volume of 25 μL for each sample. The FRET-melting assay was performed with three dual fluorescently labeled DNA oligonucleotide sequences oligonucleotides. The donor fluorophore was 6-carboxyfluorescein, FAM, and the acceptor fluorophore was 6-carboxytetramethylrhodamine, TAMRA. The 96-well plates (Applied Biosystems) were prepared by aliquoting the annealed DNA (0.2 μM in K^+1 or K^+10 buffer) into each well, followed by 1 μL of the ligand ([…] (5 eq) in DMSO). For competition experiments, duplex competitors were added to 200 nM quadruplex sequences at final concentrations of 3.0 μM (15 eq) and 10.0 μM (50 eq), with a total reaction volume of 25 μL, with the labeled oligonucleotide (0.2 μM) and the ligand (1 μM). Measurements were made with excitation at 492 nm and detection at 516 nm. The change in the melting temperature at 1.0 μm compound concentration, ΔTm (1.0 μM), was calculated from at least two experiments by subtraction of the blank from the averaged melting temperature of each compound (1.0 μM). The final analysis of the data was carried out using Origin Pro 8.6 data analysis.

[13] = tested on: 21CTA human telomeric sequence variant G4; format: binding; conditions: K+100 buffer; for % of TO displacement at 1 µM of ligand: TO 2 eq; for % of TOPRO3 displacement at 1 µM of ligand: TO-PRO-3 2 eq
Experimental: as §1, §2, §3, §7, §5

[14] = tested on: G4 structures (22AG, c-myc, 21CTA, CEB25-WT); test: TO-PRO-3-G4-FID assay, G4 structures; format: binding
Experimental: as §1, §2, §3, §7, §5

[15] = tested on: F-myc-T (DNA, G4) TGAGGGTGGGTAGGGTGGGTAA; test: FRET-melting; conditions: 1 mM KCl, 99 mM LiCl; 10 mM lithium cacodylate pH 7.3; 1 µM compound, 0.2 µM DNA
[16] = tested on: F-21CTA-T (DNA, G4) AGGGCTAGGGCTAGGGCTAGGG; test: FRET-melting; conditions: 1 mM KCl, 99 mM LiCl; 10 mM lithium cacodylate pH 7.3; 1 µM compound, 0.2 µM DNA
[17] = tested on: F-21-T (DNA, G4) GGGTTAGGGTTAGGGTTAGGG; test: FRET-melting; conditions: 10 mM KCl, 90 mM LiCl; 10 mM lithium cacodylate pH 7.3; 1 µM compound, 0.2 µM DNA
[18] = tested on: F-CEB25-WT-T (DNA, G4) AGGGTGGGTGTAAGTGTGGGTGGGT; test: FRET-melting; conditions: 1 mM KCl, 99 mM LiCl; 10 mM lithium cacodylate pH 7.3; 1 µM compound, 0.2 µM DNA
[19] = tested on: c-myc* (DNA, G4) TGAGGGTGGGTAGGGTGGGTAA; test: denaturing gel electrophoresis, 3'-exonuclease digestion; conditions: 100 mM KCl or KClO4; covalent; platination at T20/A21 and G2/A3; 18 h, 32 °C, 10 µM DNA
[20] = tested on: c-myc (myc22) (DNA, G4) TGAGGGTGGGTAGGGTGGGTAA; test: G4-FID, PhenDV displacement; conditions: 100 mM KCl; 10 mM lithium cacodylate pH 7.3, 1% DMSO; PhenDV displaced; 1 µM compound
[21] = tested on: CEB25-WT minisatellite sequence G4; test: TO-PRO-3 G4-FID assay; format: binding; conditions: TO-PRO-3 2 eq, K+100 buffer
Experimental: as §1, §2, §3, §7, §5

c-myc G4 [22] = test: TO-PRO-3 G4-FID assay; format: binding; conditions: TO-PRO-3 2 eq, K+100 buffer
Experimental: as §1, §2, §3, §7, §5

[23] = tested on: 22AG human telomeric sequence G4; test: TO-PRO-3 G4-FID assay; format: binding; conditions: TO-PRO-3 2 eq, K+100 buffer
Experimental: as §1, §2, §3, §7, §5

SMILES | % of PhenDV displacement at 1 µM of ligand [2] | % of PhenDV displacement at 1 µM of ligand [3] | % of PhenDV displacement at 1 µM of ligand (c-myc G4 [4]) | % of PhenDV displacement at 1 µM of ligand [5] | % of TO displacement at 1 µM of ligand [9] | % of TO displacement at 1 µM of ligand (c-myc G4 [10]) | % of TO displacement at 1 µM of ligand [11] | % of TO displacement at 1 µM of ligand [13] | % of TOPRO3 displacement at 1 µM of ligand [13] | also measured
CN1/C(=C/C=C/c2cc[n+](CCC[N+](C)(C)C)c3ccccc23)Sc2ccccc21.[I-].[I-] [TO-PRO-3] | – | – | – | – | – | – | – | – | – | affinity constants towards all the tested G4s structures (Ka) [1]: ~ 10^6 M^−1
F[P-](F)(F)(F)(F)F.[Pt+][C]#Cc1ccccc1.c1ccc(-c2cccc(-c3ccccn3)n2)nc1 [Pt(PA)-tpy, Phenylethylny-(2,6-bis(pyridin-2-yl)pyridine)-platinum(II) Hexafluorophosphate] | 34% | 13% | 2% | 20% | 37% | 59% | 55% | 52% | 3% | IC50 [6]: 120 nM; IC50 [7]: 50 nM; Resistance Factor (IC50ratio A2780cis/A2780) [7]: 0.6; IC50 ([8]; A2780, 96 h treatment): 80 nM; IC50 in words ([8]; A2780 cell lines): active at nM concentration; ∆Tm (ligand-induced stabilization, FRET-melting) [12]: complete lack of stabilization properties; also recorded: no stabilization; TO-PRO-3 displacement [14]: weak displacement
[Cl-].[Pt+2].c1ccc(-c2cccc(-c3ccccn3)n2)nc1 | – | – | – | – | – | – | – | – | – | ΔTm [15]: < 10 °C; ΔTm [16]: < 10 °C; ΔTm [17]: < 10 °C; ΔTm [18]: < 10 °C; binding [19]: yes
C[n+]1cc(NC(=O)c2ccc3ccc4ccc(C(=O)Nc5cc6ccccc6[n+](C)c5)nc4c3n2)cc2ccccc21 [PhenDC3, reference compound] | 100% | 99% | 85% | 92% | 90% | 96% | 95% | 95% | 83% | binding [20]: yes; % of TOPRO3 displacement at 1 µM of ligand [21]: 88%; % of TOPRO3 displacement at 1 µM of ligand (c-myc G4 [22]): 73%; % of TOPRO3 displacement at 1 µM of ligand [23]: 85%
